# Measurements as given in publication PMC10058310 (Science Advances, 2023).
# pIC50: −log10 of the molar value.
# Tests used:
# [1] = test system: recombinant SARS2 encoding ∆P168/A173V M^pro; type: cell-based, SARS-CoV-2; conditions: read-out: IC50 (95% CI)
# [2] = test system: recombinant SARS2 encoding A173V M^pro; type: cell-based, SARS-CoV-2; conditions: read-out: IC50 (95% CI)
# SARS2 M^pro P168G = conditions: cited from earlier work
# [3] = test system: recombinant SARS2 encoding ∆P168 M^pro; assay: microbe, parasite or virus in culture; type: cell-based; conditions: […], A549-hACE2 cells
# SARS2 M^pro P168S [4] = target: T1, SARS2 M^pro P168S (Severe acute respiratory syndrome coronavirus 2, UniProt P0DTD1, P3431S); type: cell-based, SARS-CoV-2
# SARS2 M^pro P168S [5] = target: T1, SARS2 M^pro P168S; conditions: cited from earlier work
# SARS2 M^pro M49I = SARS2 M^pro M49I (Severe acute respiratory syndrome coronavirus 2, UniProt P0DTD1, M3312I); conditions: cited from earlier work
smiles,measurement,setting,value
"Cn1cnc(Cn2c(=O)[nH]/c(=N\c3cc4cn(C)nc4cc3Cl)n(Cc3cc(F)c(F)cc3F)c2=O)n1 [Ensitrelvir, ensitrelvir]",pIC50,[1],8.48
same,pIC50,[2],8.11
CC(C)C[C@H](NC(=O)OCc1ccccc1)C(=O)N[C@@H](C[C@@H]1CCNC1=O)C(O)S(=O)(=O)[O-].[Na+] (stereo partly drawn) [GC376],effect of amino acid change on inhibitor susceptibility,SARS2 M^pro P168G,no effect
"CC(C)(C)[C@H](NC(=O)C(F)(F)F)C(=O)N1C[C@H]2[C@@H]([C@H]1C(=O)N[C@H](C#N)C[C@@H]1CCNC1=O)C2(C)C [Nirmatrelvir, nirmatrelvir]",pIC50,[2],7.44
"CCC(CC)COC(=O)[C@H](C)N[P@](=O)(OC[C@H]1O[C@@](C#N)(c2ccc3c(N)ncnn23)[C@H](O)[C@@H]1O)Oc1ccccc1 [Remdesivir, remdesivir]",Fold change in antiviral EC50,[3],0.9 fold
same,Fold change in antiviral EC50,[3]; listed as remdesivir,none of the mutants alter susceptibility
same,pIC50,[1],5.82
same,pIC50,[2],5.89
CC(C)(C)NC(=O)N[C@H](C(=O)N1C[C@H]2[C@@H]([C@H]1C(=O)NC(CC1CCC1)C(=O)C(N)=O)C2(C)C)C(C)(C)C (stereo partly drawn) [boceprevir],fold increase in susceptibility,SARS2 M^pro P168S [4],5.5 fold
same,effect of amino acid change on inhibitor susceptibility,SARS2 M^pro P168S [5],improve susceptibility
same,effect of substitution on inhibitor susceptibility,SARS2 M^pro M49I,little effect
same,effect of amino acid change on inhibitor susceptibility,SARS2 M^pro P168G,improve susceptibility
